# Source: patent US20250221410A1, “SUBSTITUTED 2-C-AZINES AND SALTS THEREOF, AND USE THEREOF AS HERBICIDAL ACTIVE SUBSTANCES” (BAYER AKTIENGESELLSCHAFT, priority 2022, published 2025)
# Experiments:
# Assay type in all cases: in vivo
# POLCO = experiment: Pre-emergence herbicide efficacy at 80 g/ha, POLCO; conditions: Polygonum convolvulus, scored visually after about 3 weeks
# From the text: (§1) Seeds of monocotyledonous and dicotyledonous weed plants and crop plants were placed in plastic or organic planting pots and covered with soil. The compounds of the invention, formulated in the form of wettable powders (WP) or as emulsion concentrates (EC), were then applied to the surface of the covering soil as aqueous suspension or emulsion with addition of 0.5% additive at a water application rate equivalent to 600 l/ha. After the treatment, the pots were placed in a greenhouse and kept under good growth conditions for the test plants. After about 3 weeks, the efficacy of the preparations was scored visually in comparison with untreated controls as percentages. For example, 100% activity=the plants have died, 0% activity=like control plants. Tables D1 to D12 below show the effects of selected compounds of the general formula (I) according to Table 1 on various harmful plants and an application rate corresponding to 80 g/ha, which were obtained by the experimental procedure mentioned above.
# [1] = test system: AMARE: Amaranthus retroflexus; experiment: Pre-emergence herbicide efficacy at 80 g/ha, AMARE; conditions: scored visually after about 3 weeks
# From the text: as §1
# [2] = test system: DIGSA: Digitaria sanguinalis; experiment: Pre-emergence herbicide efficacy at 80 g/ha, DIGSA; conditions: scored visually after about 3 weeks
# From the text: as §1
# VERPE: Veronica persica = experiment: Post-emergence herbicidal efficacy at 80 g/ha, VERPE; conditions: visual rating about 3 weeks after treatment vs untreated controls
# Protocol: (§2) Seeds of monocotyledonous and dicotyledonous weeds and crop plants were placed in sandy loam in plastic or organic planting pots, covered with soil and cultivated in a greenhouse under controlled growth conditions. 2 to 3 weeks after sowing, the test plants were treated at the one-leaf stage. The compounds of the invention, formulated in the form of wettable powders (WP) or as emulsion concentrates (EC), were then sprayed onto the green parts of the plants as aqueous suspension or emulsion with addition of 0.5% additive at a water application rate of 600 l/ha (converted). After the test plants had been kept in the greenhouse under optimum growth conditions for about 3 weeks, the activity of the preparations was rated visually in comparison to untreated controls. For example, 100% activity=the plants have died, 0% activity=like control plants. Tables B1 to B10 below show the effects of selected compounds of the general formula (I) according to Table 1 on various harmful plants and an application rate corresponding to 80 g/ha, which were obtained by the experimental procedure mentioned above.
# [3] = test system: AMARE: Amaranthus retroflexus; experiment: Post-emergence herbicidal efficacy at 80 g/ha, AMARE; conditions: visual rating about 3 weeks after treatment vs untreated controls
# Protocol: as §2
Structure (SMILES),Pre-emergence efficacy against POLCO in % (POLCO),Pre-emergence efficacy against AMARE in % [1],Pre-emergence efficacy against DIGSA in % [2],Post-emergence efficacy against VERPE (VERPE: Veronica persica),Post-emergence efficacy against AMARE [3]
Cc1cccc(Cc2ncc(F)cn2)c1Oc1ncc(F)cn1 [Example 1-162],80%,90%,–,–,–
Cc1cccc(Cc2ncc(Cl)cn2)c1Oc1ncc(F)cn1 [Example 1-165],80%,–,80%,–,–
O=S(=O)(CCCC(F)(F)F)Oc1c(F)cccc1Cc1ncc(Br)cn1 [Example 1-186],–,–,–,90%,90%
O=S(=O)(CCC(F)(F)F)Oc1c(F)cccc1Cc1ncc(Br)cn1 [Example 1-187],–,100%,–,90%,90%
Cc1cccc(Cc2ncc(Cl)cn2)c1OS(=O)(=O)CCC(F)(F)F [Example 1-189],–,80%,–,90%,–
O=S(=O)(CCCCl)Oc1c(F)cccc1Cc1ncc(Br)cn1 [Example 1-192],–,–,–,80%,–
O=S(=O)(CCCCl)Oc1c(F)cccc1Cc1ncc(Cl)cn1 [Example 1-193],–,–,–,90%,90%
